Reference: patent US7179943B2, “Bicyclic derivatives that modulate voltage-gated potassium channels and methods of use thereof” (Wyeth, priority 2004, dated 2007)

Experiments:
mouse Elevated Zero Maze = test: Anxiolytic activity: mouse Elevated Zero Maze model; assay type: in vivo; conditions: 30 min prior to testing, mice; for % Total Distance Traveled (Relative to Control): 3 mg/kg ip.
Procedure: Anxiolytic activity of the compounds of formula I was determined using the mouse Elevated Zero Maze model, originally described by Shepherd, et al. (Psychopharmocol. (1994) 116:56–64), incorporated herein by reference in its entirety. Anxiolytic efficacy was measured as the ability of the test compound to increase the amount of time that the mice spent in the open zones of the maze. To account for the possibility of false positive results due to increased locomotor activity, total distance traveled during the course of the experiment was also monitored.
The zero maze, constructed of black Perspex, consisted of a circle (outer diameter approximately 60 cm, width 5 cm) that was elevated 55 cm above the floor. The zero maze was divided into 4 equal quadrants, alternating between open and closed. […] Animals were tested under low levels of illumination in the presence of red light. Test animals (male CN57BI/n mice) were group housed with ad lib access to food and water. On the day of testing, animals were brought into the behavioral testing room and allowed to habituate for a period of not less than one-half hour. Test compounds were administered at the appropriate dose ip. 30 min prior to testing on the zero maze. Control animals were administered the test vehicle. Animals were placed on the zero maze with their head and forepaws contained within a closed quadrant. The animals' behavior was then recorded for 4 minutes and the distance traveled, the amount of time spent in, and number of entries into, each quadrant was noted. Behavior was monitored utilizing an automated video tracking system. Results for the test compounds are presented here as the percentage relative to that obtained with the control animals.

[1] = target: T1, human Kv1.1/Kvβ1 potassium ion channel complex (Homo sapiens, UniProt Q09470); test: Xenopus oocytes current assay (inhibition of inactivation, voltage clamp); assay type: cell-based; conditions: Xenopus oocytes expressing hKv1.1/hKvβ1, relative to control bath solution, read-out: Percent Increase in Steady State Current Of human Kv1.1/Kvβ1 @ a concentration of 50 μM
T1 construct: expressed in transfected cells; host or cells: Xenopus oocytes injected with cRNA
T1 sequence (Q09470 whole entry, one chain of several): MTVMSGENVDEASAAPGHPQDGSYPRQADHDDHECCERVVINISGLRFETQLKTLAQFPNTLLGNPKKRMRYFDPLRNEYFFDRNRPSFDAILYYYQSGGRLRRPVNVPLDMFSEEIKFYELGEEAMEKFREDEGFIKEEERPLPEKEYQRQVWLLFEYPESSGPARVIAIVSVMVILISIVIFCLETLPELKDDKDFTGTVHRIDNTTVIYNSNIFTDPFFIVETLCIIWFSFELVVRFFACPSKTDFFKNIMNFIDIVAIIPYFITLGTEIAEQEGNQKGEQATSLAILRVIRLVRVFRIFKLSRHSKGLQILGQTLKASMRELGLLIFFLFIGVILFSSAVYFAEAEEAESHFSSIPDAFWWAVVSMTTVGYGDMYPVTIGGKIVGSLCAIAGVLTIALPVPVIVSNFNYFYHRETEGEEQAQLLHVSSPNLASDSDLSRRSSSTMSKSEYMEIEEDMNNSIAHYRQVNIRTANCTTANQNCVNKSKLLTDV
Procedure: The compounds of formula I were examined for their ability to inhibit the inactivation of the human Kv1.1/Kvβ1 potassium ion channel complex in vitro using electrophysiological current recordings on inactivating Kv1.1/Kvβ1 channels expressed in Xenopus oocytes. Xenopus oocytes were harvested from frogs under general anesthesia using aseptic techniques. Oocytes were treated with 2 mg/ml collagenase for 1–1.5 hr, defolliculated, and injected with 40 nL cRNA (a mixture of hky1.1 and hKvβ1) produced using standard molecular biological techniques (Sambrook, et al., 1989, Molecular Cloning: A Laboratory Manual). The concentration of hKv1.1/hKvp1 cRNA varies, but was generally about 50 ng/μL hKv1.1 and […] hKβ1.
Currents were recorded using standard voltage clamp amplifiers at room temperature. Recordings were performed in the bath solution “ND-96” containing 96 mM NaCl, 2 mM KCl, 1 mm CaCl2, 1 mM MgCl2, 10 mM HEPES and […] Gentamycin (pH=7.6). The pipette (electrode) solution generally consisted of […]. Electrodes were made from WPI TW150F-4 borosilicate glass (or equivalent) and typically had resistances of 0.5–1.5 Mohms. The standard current-voltage (IV) pulse protocol consisted of voltage steps from −60 mV to +50 mV, in 10 mV increments for 200 ms, at a frequency of one IV set per 2 minutes. Data were digitized and analyzed by standard software packages.
Solutions of the test compounds consisting of test compounds dissolved in bath solution were applied by bath perfusion using gravity or pump-driven flow. A minimum of 2 mL (10 times the bath volume) over 3 minutes were flowed for each compound concentration tested. Data were averaged across at least 3 cells tested for each concentration.
Test compounds were examined for their ability to inhibit the inactivation of the steady state portion of the IV curve.

SMILES | % Total Distance Traveled (Relative to Control) (mouse Elevated Zero Maze) | % Total Distance Traveled (Relative to Control) (mouse Elevated Zero Maze; listed as diazepam) | activation at 50 µM [1] | % Time Spent in Open Zones (Relative to Control) (mouse Elevated Zero Maze; 60 mg/kg ip.) | melting point
CN1C(=O)CN=C(c2ccccc2)c2cc(Cl)ccc21 [Diazepam, reference compound] | 75% | small decrease | – | – | –
CC1(C)C2CC[C@]1(C)C(=O)C(C(=O)Nc1cccc(C(F)(F)F)c1)C2=O (stereo partly drawn) [Example 2, (1S)-N-[3-(trifluoromethyl)phenyl]-1,8,8-trimethyl-2,4-dioxobicyclo[3.2.1] octane-3-carboxamide] | – | – | 22% | 140% | 60 to 62 °C
CC1(C)C2CC[C@]1(C)C(=O)C(C(=O)Nc1ccc(F)c(Cl)c1)C2=O (stereo partly drawn) [Example 10, (1S)-N-[3-chloro-4-fluorophenyl]-1,8,8-trimethyl-2,4-dioxobicyclo[3.2.1] octane-3-carboxamide] | – | – | 137% | – | 87 to 89 °C
CC1(C)C2CC[C@@]1(C)C(=O)C(C(=O)Nc1cc(C(F)(F)F)cc(C(F)(F)F)c1)C2=O (stereo partly drawn) [Example 12, (1R)-N-[3,5-bis(trifluoromethyl)phenyl]-1,8,8-trimethyl-2,4-dioxobicyclo [3.2.1]octane-3-carboxamide] | – | – | 22% | – | 68 to 71 °C
CC1(C)C2CC[C@@]1(C)C(=O)C(C(=O)Nc1cc(Cl)cc(Cl)c1)C2=O (stereo partly drawn) [Example 13, (1R)-N-(3,5-dichlorophenyl)-1,8,8-trimethyl-2,4-dioxobicyclo[3.2.1]octane-3-carboxamide] | – | – | 19% | – | 115 to 117 °C
CC1(C)C2CC[C@@]1(C)C(=O)C(C(=O)Nc1ccc([N+](=O)[O-])cc1)C2=O (stereo partly drawn) [Example 15, (1R)-N-(4-nitrophenyl)-1,8,8-trimethyl-2,4-dioxobicyclo[3.2.1]octane-3-carboxamide] | – | – | 75% | – | 168 to 170 °C
CC1(C)C2CC[C@@]1(C)C(=O)C(C(=O)Nc1ccc(Cl)c(C(F)(F)F)c1)C2=O (stereo partly drawn) [Example 16, (1R)-N-[4-chloro-3-(trifluoromethyl)phenyl]-1,8,8-trimethyl-2,4-dioxobicyclo [3.2.1]octane-3-carboxamide] | – | – | 45% | – | 117 to 119 °C
CC1(C)C2CC[C@@]1(C)C(=O)C(C(=O)Nc1ccc(C(F)(F)F)cc1)C2=O (stereo partly drawn) [Example 18, (1R)-N-[4-(trifluoromethyl)phenyl]-1,8,8-trimethyl-2,4-dioxobicyclo[3.2.1] octane-3-carboxamide] | – | – | 96% | – | 78 to 81 °C
CC1(C)C2CC[C@@]1(C)C(=O)C(C(=O)Nc1ccc(Cl)cc1)C2=O (stereo partly drawn) [Example 19, (1R)-N-[4-chlorophenyl]-1,8,8-trimethyl-2,4-dioxobicyclo[3.2.1]octane-3-carboxamide] | – | – | 14% | – | 88 to 90 °C
CC1(C)C2CC[C@@]1(C)C(=O)C(C(=O)Nc1ccc(F)c(Cl)c1)C2=O (stereo partly drawn) [Example 20, (1R)-N-[3-chloro-4-fluorophenyl]-1,8,8-trimethyl-2,4-dioxobicyclo[3.2.1] octane-3-carboxamide] | – | – | 267% | – | 89 to 91 °C
CC1(C)C2CC[C@@]1(C)C(=O)C(C(=O)Nc1ccc(F)c(C(F)(F)F)c1)C2=O (stereo partly drawn) [Example 21, (1R)-N-[3(trifluoromethyl)-4-fluorophenyl]-1,8,8-trimethyl-2,4-dioxobicyclo [3.2.1]octane-3-carboxamide] | – | – | 229% | – | 96 to 98 °C
O=C(Nc1cccc(C(F)(F)F)c1)C1C(=O)C2CCC(C2)C1=O (stereo not shown) [Example 22, N-[3-(trifluoromethyl)phenyl]-2,4-dioxobicyclo[3.2.1]octane-3-carboxamide] | – | – | 41% | – | 68 to 69 °C
O=C(Nc1cc(C(F)(F)F)cc(C(F)(F)F)c1)C1C(=O)C2CCC(C2)C1=O (stereo not shown) [Example 23, N-[3,5-bis(trifluoromethyl)phenyl]-2,4-dioxobicyclo[3.2.1]octane-3-carboxamide] | – | – | 137% | – | 88 to 90 °C
O=C(Nc1ccc(Cl)c(C(F)(F)F)c1)C1C(=O)C2CCC(C2)C1=O (stereo not shown) [Example 25, N-[4-chloro-3-(trifluoromethyl)phenyl]-2,4-dioxobicyclo[3.2.1]octane-3-carboxamide] | – | – | 47% | – | 136 to 137 °C
O=C(Nc1ccc(F)c(C(F)(F)F)c1)C1C(=O)C2CCC(C2)C1=O (stereo not shown) [Example 27, N-[4-fluoro-3-(trifluoromethyl)phenyl]-2,4-dioxobicyclo[3.2.1]octane-3-carboxamide] | – | – | 43% | – | 97 to 100 °C
